Reference: patent US4690919A, “Benzoxazinorifamycin derivative, process for preparing the same and antibacterial agent containing the same” (Kanegafuchi Kagaku Kogyo Kabushiki Kaisha, priority 1985, dated 1987)
Converted amounts (≈) assume the structure as drawn. Where two headings read alike, the source gives them in different places.

Legend:
[1] = system: Bacillus subtilis IFO 3134; test: Antibacterial activity (MIC), standard method of Japan Society of Chemotherapy; format: cell-based
Text: (§1) The results obtained from the typical compounds are shown in Table 2 as the minimum inhibitory concentration (MIC, μg/ml). […] In Table 2, Test compound No. corresponds to derivative No. in Table 1.

[2] = system: Escherichia coli IFO 12734; test: as above; format: cell-based; settings: IFO12734, read-out: minimum inhibitory concentration (MIC)
Text: as §1

[3] = system: Klebsiella pneumoniae IFO 3512; test: as above; format: cell-based
Text: as §1

[4] = system: Micrococcus luteus IFO 12708; test: as above; format: cell-based
Text: as §1

[5] = system: Mycobacterium smegmatis ATCC 607; test: as above; format: cell-based; settings: Mycolicibacterium smegmatis
Text: as §1

[6] = system: Staphylococcus aureus IFO 12732; test: as above; format: cell-based
Text: as §1

[7] = Concentration in serum after oral administration to rats; settings: rat, 20 mg/kg
[8] = IFO3134, Bacillus subtilis IFO 3134, read-out: minimum inhibitory concentration (MIC)
[9] = IFO3512, Klebsiella pneumoniae IFO 3512, read-out: minimum inhibitory concentration (MIC)
[10] = IFO12708, Micrococcus luteus IFO 12708, read-out: minimum inhibitory concentration (MIC)
[11] = ATCC607, Mycobacterium smegmatis ATCC 607, read-out: minimum inhibitory concentration (MIC)
[12] = IFO12732, Staphylococcus aureus IFO 12732, read-out: minimum inhibitory concentration (MIC)

SMILES	MIC [2]	MIC [1, 8]	MIC [3, 9]	MIC [4, 10]	MIC [5, 11]	MIC [6, 12]	concentration at 1 h [7]	concentration at 3 h [7]	concentration at 5 h [7]	MIC ([1]; Bacillus subtilis, IFO3134, read-out: minimum inhibitory concentration (MIC))	MIC ([3]; Klebsiella pneumoniae, IFO3512, read-out: minimum inhibitory concentration (MIC))	MIC ([4]; Micrococcus luteus, IFO12708, read-out: minimum inhibitory concentration (MIC))	MIC ([5]; ATCC607, read-out: minimum inhibitory concentration (MIC))	MIC ([6]; Staphylococcus aureus, IFO12732, read-out: minimum inhibitory concentration (MIC))
CO[C@H]1/C=C/O[C@@]2(C)Oc3c(C)c(O)c4c(O)c(c(/C=N/N5CCN(C)CC5)c(O)c4c3C2=O)NC(=O)/C(C)=C\C=C\[C@H](C)[C@H](O)[C@@H](C)[C@@H](O)[C@@H](C)[C@H](OC(C)=O)[C@@H]1C [Rifampicin, reference compound]	10 µg/mL (≈ 12.2 µM)	–	–	–	–	–	–	–	–	0.04 µg/mL (≈ 0.0486 µM)	5 µg/mL (≈ 6.08 µM)	≤ 0.02 µg/mL	10 µg/mL (≈ 12.2 µM)	≤ 0.02 µg/mL
COC(CN(C)c1ccc2nc3c4c5c6c(C)c(O)c4c(=O)c(c-3oc2c1)NC(=O)C(C)=CC=CC(C)C(O)C(C)C(O)C(C)C(OC(C)=O)C(C)C(OC)C=COC(C)(O6)C5=O)OC (stereo not drawn) [compound 11]	> 10 µg/mL	≤ 0.02 µg/mL	5 µg/mL (≈ 5.54 µM)	≤ 0.02 µg/mL	2.5 µg/mL (≈ 2.77 µM)	≤ 0.02 µg/mL	2900 ng/mL	3400 ng/mL	1000 ng/mL	–	–	–	–	–
COC1C=COC2(C)Oc3c(C)c(O)c4c(=O)c(c5oc6cc(N7CCCCC7)ccc6nc-5c4c3C2=O)NC(=O)C(C)=CC=CC(C)C(O)C(C)C(O)C(C)C(O)C1C (stereo not drawn) [compound 50]	–	–	–	–	–	–	700 ng/mL	2400 ng/mL	2800 ng/mL	–	–	–	–	–
COC1C=COC2(C)Oc3c(C)c(O)c4c(=O)c(c5oc6cc(N7CCCC7)cc(O)c6nc-5c4c3C2=O)NC(=O)C(C)=CC=CC(C)C(O)C(C)C(O)C(C)C(OC(C)=O)C1C (stereo not drawn) [compound 46]	> 10 µg/mL	≤ 0.02 µg/mL	> 10 µg/mL	≤ 0.02 µg/mL	1.25 µg/mL (≈ 1.44 µM)	≤ 0.02 µg/mL	–	–	–	–	–	–	–	–
COC1C=COC2(C)Oc3c(C)c(O)c4c(=O)c(c5oc6cc(N(C)C7CCCCC7)ccc6nc-5c4c3C2=O)NC(=O)C(C)=CC=CC(C)C(O)C(C)C(O)C(C)C(OC(C)=O)C1C (stereo not drawn) [compound 12]	> 10 µg/mL	≤ 0.02 µg/mL	> 10 µg/mL	≤ 0.02 µg/mL	1.25 µg/mL (≈ 1.4 µM)	≤ 0.02 µg/mL	–	–	–	–	–	–	–	–
CCC1CCCCN1c1ccc2nc3c4c5c6c(C)c(O)c4c(=O)c(c-3oc2c1)NC(=O)C(C)=CC=CC(C)C(O)C(C)C(O)C(C)C(OC(C)=O)C(C)C(OC)C=COC(C)(O6)C5=O (stereo not drawn) [compound 25]	–	–	–	–	–	–	2400 ng/mL	6600 ng/mL	3500 ng/mL	–	–	–	–	–
COC1C=COC2(C)Oc3c(C)c(O)c4c(=O)c(c5oc6cc(N7CCCC(C)C7)ccc6nc-5c4c3C2=O)NC(=O)C(C)=CC=CC(C)C(O)C(C)C(O)C(C)C(OC(C)=O)C1C (stereo not drawn) [compound 23]	> 10 µg/mL	≤ 0.02 µg/mL	> 10 µg/mL	≤ 0.02 µg/mL	1.25 µg/mL (≈ 1.42 µM)	≤ 0.02 µg/mL	2100 ng/mL	6100 ng/mL	5200 ng/mL	–	–	–	–	–

Continued by falling MIC [2], values first:

MIC [2]	MIC [1, 8]	MIC [3, 9]	MIC [4, 10]	MIC [5, 11]	MIC [6, 12]	concentration at 1 h [7]	concentration at 3 h [7]	concentration at 5 h [7]	SMILES	MIC ([1]; Bacillus subtilis, IFO3134, read-out: minimum inhibitory concentration (MIC))	MIC ([3]; Klebsiella pneumoniae, IFO3512, read-out: minimum inhibitory concentration (MIC))	MIC ([4]; Micrococcus luteus, IFO12708, read-out: minimum inhibitory concentration (MIC))	MIC ([5]; ATCC607, read-out: minimum inhibitory concentration (MIC))	MIC ([6]; Staphylococcus aureus, IFO12732, read-out: minimum inhibitory concentration (MIC))
5 µg/mL (≈ 5.17 µM)	≤ 0.02 µg/mL	> 10 µg/mL	≤ 0.02 µg/mL	1.25 µg/mL (≈ 1.29 µM)	≤ 0.02 µg/mL	–	–	–	CCN(CC)C(=O)C1CCCN(c2ccc3nc4c5c6c7c(C)c(O)c5c(=O)c(c-4oc3c2)NC(=O)C(C)=CC=CC(C)C(O)C(C)C(O)C(C)C(OC(C)=O)C(C)C(OC)C=COC(C)(O7)C6=O)C1 (stereo not drawn) [compound 31]	–	–	–	–	–
2.5 µg/mL (≈ 2.88 µM)	≤ 0.02 µg/mL	10 µg/mL (≈ 11.5 µM)	≤ 0.02 µg/mL	1.25 µg/mL (≈ 1.44 µM)	≤ 0.02 µg/mL	4900 ng/mL	12400 ng/mL	16600 ng/mL	COC1C=COC2(C)Oc3c(C)c(O)c4c(=O)c(c5oc6cc(N7CCCCC7)ccc6nc-5c4c3C2=O)NC(=O)C(C)=CC=CC(C)C(O)C(C)C(O)C(C)C(OC(C)=O)C1C (stereo not drawn) [compound 19]	–	–	–	–	–
2.5 µg/mL (≈ 2.98 µM)	≤ 0.02 µg/mL	2.5 µg/mL (≈ 2.98 µM)	≤ 0.02 µg/mL	0.63 µg/mL (≈ 0.75 µM)	≤ 0.02 µg/mL	4100 ng/mL	3700 ng/mL	2500 ng/mL	COC1C=COC2(C)Oc3c(C)c(O)c4c(=O)c(c5oc6cc(N7CCC7)ccc6nc-5c4c3C2=O)NC(=O)C(C)=CC=CC(C)C(O)C(C)C(O)C(C)C(OC(C)=O)C1C (stereo not drawn) [compound 17]	–	–	–	–	–
0.63 µg/mL (≈ 0.713 µM)	0.04 µg/mL (≈ 0.0453 µM)	1.25 µg/mL (≈ 1.42 µM)	≤ 0.02 µg/mL	1.25 µg/mL (≈ 1.42 µM)	0.04 µg/mL (≈ 0.0453 µM)	–	–	–	COC1C=COC2(C)Oc3c(C)c(O)c4c(=O)c(c5oc6cc(N7CCN(C)CC7)ccc6nc-5c4c3C2=O)NC(=O)C(C)=CC=CC(C)C(O)C(C)C(O)C(C)C(OC(C)=O)C1C (stereo not drawn) [compound 39]	–	–	–	–	–
